# In US20250277012A1 (Protagonist Therapeutics, Inc., priority 2021, published 2025):
# Positions of bridges follow the written chain, without caps; N, C: chain ends. Non-standard residues stand in square brackets, D forms with d. Residues, ends and D or L forms follow the SMILES beside them. Groups on a side chain read outwards from the residue. *: point of attachment. C18 diacid = O=C(O)CCCCCCCCCCCCCCCCC(=O)*; Dip = N[C@H](C(=O)O)C(c1ccccc1)c1ccccc1; Palmitoyl = CCCCCCCCCCCCCCCC(=O)*; β3hF = N[C@H](CC(=O)O)Cc1ccccc1; Pen = CC(C)(S)[C@H](N)C(=O)O; Isovaleryl = CC(C)CC(=O)*; hCys = N[C@@H](CCS)C(=O)O; AEEA = NCCOCCOCC(=O)O; Ahx = NCCCCCC(=O)O
# Molecular target: T1, ferroportin (Homo sapiens, UniProt Q9NP59)
# T1 sequence (Q9NP59 1-571): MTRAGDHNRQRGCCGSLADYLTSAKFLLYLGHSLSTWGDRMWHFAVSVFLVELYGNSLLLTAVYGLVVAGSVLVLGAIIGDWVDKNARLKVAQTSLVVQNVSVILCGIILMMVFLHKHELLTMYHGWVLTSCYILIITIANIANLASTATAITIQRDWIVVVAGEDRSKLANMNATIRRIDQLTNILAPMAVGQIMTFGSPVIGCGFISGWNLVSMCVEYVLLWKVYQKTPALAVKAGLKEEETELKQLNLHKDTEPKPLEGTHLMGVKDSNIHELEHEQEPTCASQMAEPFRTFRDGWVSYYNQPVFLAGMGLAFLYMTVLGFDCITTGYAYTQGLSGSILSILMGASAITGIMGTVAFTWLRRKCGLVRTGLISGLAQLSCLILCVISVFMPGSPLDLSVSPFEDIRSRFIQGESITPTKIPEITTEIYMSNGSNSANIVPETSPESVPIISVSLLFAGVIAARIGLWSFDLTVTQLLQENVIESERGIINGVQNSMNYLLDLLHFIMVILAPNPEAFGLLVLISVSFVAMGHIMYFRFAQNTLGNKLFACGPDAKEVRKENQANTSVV
# Assay: FPN activity assay: ferroportin-GFP internalization/degradation in HEK293 cells
# Format: cell-based
# Parameters: expressed in transfected cells
# Conditions: ferroportin-GFP HEK293 cells, at least 18 hours; read-out: FPN IC50
# Protocol: Following internalization, the ferroporin protein is degraded.
# A retro inverse peptide is a peptide with a reversed sequence in all D amino acids. An example is that Hy-Glu-Thr-His-NH2 becomes Hy-DHis-DThr-DGlu-NH2. The EC50 of these reference compounds for ferroportin internalization/degradation was determined according to the FPN activity assay described above. These peptides served as control standards.
row,DC50 [µM],Structure (SMILES)
1,0.01 to 0.1,CCCCCCCCCCCCCCCC(=O)NCCCCCC(=O)NCCCC[C@H](NC(=O)C[C@H](Cc1ccccc1)NC(=O)[C@@H](CCCCN)NC(=O)[C@@H](NC(=O)[C@@H]1CSSC[C@H](NC(=O)[C@H](Cc2c[nH]cn2)NC(=O)[C@@H](NC(=O)[C@H](CCC(=O)O)NC(=O)CC(C)C)[C@@H](C)O)C(=O)N2CCC[C@H]2C(=O)N1)[C@@H](C)CC)C(=O)N[C@H](CCCCN)C(N)=O [Compd 3] (Isovaleryl-ETHCPCI[dK][β3hF]K([Ahx-Palmitoyl])[dK]-NH2; disulfide 4-6)
2,0.01 to 0.1,CCCCCCCCCCCCCCCC(=O)NCCCCCC(=O)NCCCC[C@H](NC(=O)C[C@H](Cc1ccccc1)NC(=O)[C@@H](CCCCN)NC(=O)[C@@H](NC(=O)[C@@H]1CSSC[C@H](NC(=O)[C@@H](NC(=O)[C@H](Cc2c[nH]cn2)NC(=O)[C@@H](NC(=O)[C@H](CCC(=O)O)NC(=O)CC(C)C)[C@@H](C)O)C(c2ccccc2)c2ccccc2)C(=O)N1)[C@@H](C)CC)C(=O)N[C@H](CCCCN)C(N)=O [Compd 4] (Isovaleryl-ETH[Dip]CCI[dK][β3hF]K([Ahx-Palmitoyl])[dK]-NH2; disulfide 5-6)
3,0.01 to 0.1,CCCCCCCCCCCCCCCC(=O)NCCCCCC(=O)NCCCC[C@H](NC(=O)C[C@H](Cc1ccccc1)NC(=O)[C@@H](CCCCN)NC(=O)[C@@H]1CSSC[C@H](NC(=O)[C@@H]2CCCN2C(=O)[C@@H](NC(=O)[C@H](Cc2c[nH]cn2)NC(=O)[C@@H](NC(=O)[C@H](CCC(=O)O)NC(=O)CC(C)C)[C@@H](C)O)C(c2ccccc2)c2ccccc2)C(=O)N1)C(=O)N[C@H](CCCCN)C(N)=O [Compd 6] (Isovaleryl-ETH[Dip]PCC[dK][β3hF]K([Ahx-Palmitoyl])[dK]-NH2; disulfide 6-7)
4,0.01 to 0.1,CCCCCCCCCCCCCCCC(=O)NCCCCCC(=O)NCCCC[C@H](NC(=O)C[C@H](Cc1ccccc1)NC(=O)[C@@H]1CSSC[C@H](NC(=O)[C@@H]2CCCN2C(=O)[C@@H](NC(=O)[C@H](Cc2c[nH]cn2)NC(=O)[C@@H](NC(=O)[C@H](CCC(=O)O)NC(=O)CC(C)C)[C@@H](C)O)C(c2ccccc2)c2ccccc2)C(=O)N[C@@H]([C@@H](C)CC)C(=O)N1)C(=O)N[C@H](CCCCN)C(N)=O [Compd 7] (Isovaleryl-ETH[Dip]PCIC[β3hF]K([Ahx-Palmitoyl])[dK]-NH2; disulfide 6-8)
5,0.1 to 0.5,CCCCCCCCCCCCCCCC(=O)NCCCCCC(=O)NCCCC[C@H](NC(=O)C[C@H](Cc1ccccc1)NC(=O)[C@@H]1CSSC[C@H](NC(=O)[C@@H]2CCCN2C(=O)[C@@H](NC(=O)[C@H](Cc2c[nH]cn2)NC(=O)[C@@H](NC(=O)[C@H](CCC(=O)O)NC(=O)CC(C)C)[C@@H](C)O)C(c2ccccc2)c2ccccc2)C(=O)N[C@@H]([C@@H](C)CC)C(=O)N1)C(=O)N[C@H](CCCCN)C(N)=O [Compd 8] (Isovaleryl-ETH[Dip]PCIC[β3hF]K([Ahx-Palmitoyl])[dK]-NH2; disulfide 6-8)
6,0.1 to 0.5,CCCCCCCCCCCCCCCC(=O)NCCCCCC(=O)NCCCC[C@H](NC(=O)[C@@H](NC(=O)[C@@H]1CSSC[C@H](NC(C)=O)C(=O)N[C@@H](CCC(=O)O)C(=O)N[C@@H]([C@@H](C)O)C(=O)N[C@@H](Cc2c[nH]cn2)C(=O)N[C@@H](C(c2ccccc2)c2ccccc2)C(=O)N2CCC[C@H]2C(=O)N1)[C@@H](C)CC)C(=O)N[C@H](CC(N)=O)Cc1ccccc1 [Compd 9] (Ac-CETH[Dip]PCIK([Ahx-Palmitoyl])[β3hF]-NH2; disulfide 1-7)
7,0.1 to 0.5,CCCCCCCCCCCCCCCC(=O)NCCCCCC(=O)NCCCC[C@H](NC(=O)[C@@H](NC(=O)[C@@H]1CSSC[C@H](NC(=O)CC(C)C)C(=O)N[C@@H](CCC(=O)O)C(=O)N[C@@H]([C@@H](C)O)C(=O)N[C@@H](Cc2c[nH]cn2)C(=O)N[C@@H](C(c2ccccc2)c2ccccc2)C(=O)N2CCC[C@H]2C(=O)N1)[C@@H](C)CC)C(=O)N[C@H](CC(N)=O)Cc1ccccc1 [Compd 10] (Isovaleryl-CETH[Dip]PCIK([Ahx-Palmitoyl])[β3hF]-NH2; disulfide 1-7)
8,> 0.5,CCCCCCCCCCCCCCCC(=O)NCCCCCC(=O)NCCCC[C@H](NC(=O)[C@@H](NC(=O)[C@@H]1CSSC(C)(C)[C@H](N)C(=O)N[C@@H](CCC(=O)O)C(=O)N[C@@H]([C@@H](C)O)C(=O)N[C@@H](Cc2c[nH]cn2)C(=O)N[C@@H](C(c2ccccc2)c2ccccc2)C(=O)N2CCC[C@H]2C(=O)N1)[C@@H](C)CC)C(=O)N[C@H](CC(N)=O)Cc1ccccc1 [Compd 11] (H-[Pen]ETH[Dip]PCIK([Ahx-Palmitoyl])[β3hF]-NH2; disulfide 1-7)
9,0.1 to 0.5,CCCCCCCCCCCCCCCC(=O)NCCCCCC(=O)NCCCC[C@H](NC(=O)[C@@H](NC(=O)[C@@H]1CSSCC[C@H](NC(C)=O)C(=O)N[C@@H](CCC(=O)O)C(=O)N[C@@H]([C@@H](C)O)C(=O)N[C@@H](Cc2c[nH]cn2)C(=O)N[C@@H](C(c2ccccc2)c2ccccc2)C(=O)N2CCC[C@H]2C(=O)N1)[C@@H](C)CC)C(=O)N[C@H](CC(N)=O)Cc1ccccc1 [Compd 12] (Ac-[hCys]ETH[Dip]PCIK([Ahx-Palmitoyl])[β3hF]-NH2; disulfide 1-7)
10,0.1 to 0.5,CCCCCCCCCCCCCCCC(=O)NCCCCCC(=O)NCCCC[C@H](NC(=O)[C@@H](NC(=O)[C@@H]1CSSCC[C@H](NC(=O)CC(C)C)C(=O)N[C@@H](CCC(=O)O)C(=O)N[C@@H]([C@@H](C)O)C(=O)N[C@@H](Cc2c[nH]cn2)C(=O)N[C@@H](C(c2ccccc2)c2ccccc2)C(=O)N2CCC[C@H]2C(=O)N1)[C@@H](C)CC)C(=O)N[C@H](CC(N)=O)Cc1ccccc1 [Compd 13] (Isovaleryl-[hCys]ETH[Dip]PCIK([Ahx-Palmitoyl])[β3hF]-NH2; disulfide 1-7)
11,0.1 to 0.5,CCCCCCCCCCCCCCCC(=O)NCCCCCC(=O)NCCCC[C@H](NC(=O)[C@@H](NC(=O)[C@@H]1CCSSCC[C@H](NC(C)=O)C(=O)N[C@@H](CCC(=O)O)C(=O)N[C@@H]([C@@H](C)O)C(=O)N[C@@H](Cc2c[nH]cn2)C(=O)N[C@@H](C(c2ccccc2)c2ccccc2)C(=O)N2CCC[C@H]2C(=O)N1)[C@@H](C)CC)C(=O)N[C@H](CC(N)=O)Cc1ccccc1 [Compd 14] (Ac-[hCys]ETH[Dip]P[hCys]IK([Ahx-Palmitoyl])[β3hF]-NH2; disulfide 1-7)
12,> 0.5,CCCCCCCCCCCCCCCC(=O)NCCCCCC(=O)NCCCC[C@H](NC(=O)[C@@H](NC(=O)[C@@H]1CCSSCC[C@H](NC(=O)CC(C)C)C(=O)N[C@@H](CCC(=O)O)C(=O)N[C@@H]([C@@H](C)O)C(=O)N[C@@H](Cc2c[nH]cn2)C(=O)N[C@@H](C(c2ccccc2)c2ccccc2)C(=O)N2CCC[C@H]2C(=O)N1)[C@@H](C)CC)C(=O)N[C@H](CC(N)=O)Cc1ccccc1 [Compd 15] (Isovaleryl-[hCys]ETH[Dip]P[hCys]IK([Ahx-Palmitoyl])[β3hF]-NH2; disulfide 1-7)
13,> 0.5,CCCCCCCCCCCCCCCC(=O)NCCCCCC(=O)NCCCC[C@H](NC(=O)[C@@H](NC(=O)[C@@H]1CCSSCC[C@H](N)C(=O)N[C@@H](C(C)C)C(=O)N[C@@H](CCC(=O)O)C(=O)N[C@@H]([C@@H](C)O)C(=O)N[C@@H](Cc2c[nH]cn2)C(=O)N[C@@H](C(c2ccccc2)c2ccccc2)C(=O)N2CCC[C@H]2C(=O)N1)[C@@H](C)CC)C(=O)N[C@H](CC(N)=O)Cc1ccccc1 [Compd 16] (H-[hCys]VETH[Dip]P[hCys]IK([Ahx-Palmitoyl])[β3hF]-NH2; disulfide 1-8)
14,0.1 to 0.5,CCCCCCCCCCCCCCCC(=O)NCCCCCC(=O)NCCCC[C@H](NC(=O)[C@@H](NC(=O)[C@@H]1CCSSC[C@H](N)C(=O)N[C@@H](C(C)C)C(=O)N[C@@H](CCC(=O)O)C(=O)N[C@@H]([C@@H](C)O)C(=O)N[C@@H](Cc2c[nH]cn2)C(=O)N[C@@H](C(c2ccccc2)c2ccccc2)C(=O)N2CCC[C@H]2C(=O)N1)[C@@H](C)CC)C(=O)N[C@H](CC(N)=O)Cc1ccccc1 [Compd 17] (H-CVETH[Dip]P[hCys]IK([Ahx-Palmitoyl])[β3hF]-NH2; disulfide 1-8)
15,0.1 to 0.5,CC[C@H](C)[C@H](NC(=O)[C@@H]1CSSC[C@H](NC(=O)[C@H](Cc2c[nH]cn2)NC(=O)[C@@H](NC(=O)[C@H](CCC(=O)O)NC(=O)CC(C)C)[C@@H](C)O)C(=O)N2CCC[C@H]2C(=O)N1)C(=O)N[C@@H](CCCCNC(=O)COCCOCCNC(=O)COCCOCCNC(=O)CCCCCNC(=O)CCCCCCCCCCCCCCCCC(=O)O)C(=O)N[C@H](CC(=O)N[C@H](CCCCN)C(N)=O)Cc1ccccc1 [Compd 20] (Isovaleryl-ETHCPCIK([AEEA-AEEA-Ahx-C18 diacid])[β3hF][dK]-NH2; disulfide 4-6)
16,0.1 to 0.5,CC[C@H](C)[C@H](NC(=O)[C@@H]1CSSC[C@H](NC(=O)[C@H](Cc2c[nH]cn2)NC(=O)[C@@H](NC(=O)[C@H](CCC(=O)O)NC(=O)CC(C)C)[C@@H](C)O)C(=O)N2CCC[C@H]2C(=O)N1)C(=O)N[C@H](CCCCN)C(=O)N[C@H](CC(=O)N[C@@H](CCCCNC(=O)COCCOCCNC(=O)COCCOCCNC(=O)CCCCCNC(=O)CCCCCCCCCCCCCCCCC(=O)O)C(=O)N[C@H](CCCCN)C(N)=O)Cc1ccccc1 [Compd 24] (Isovaleryl-ETHCPCI[dK][β3hF]K([AEEA-AEEA-Ahx-C18 diacid])[dK]-NH2; disulfide 4-6)
